In patent US20230331707A1, “PROGRAMMED CELL NECROSIS INHIBITOR, PREPARATION METHOD THEREFOR, AND USE THEREOF” (Shanghai Institute of Organic Chemistry, Chinese Academy of …, priority 2020, published 2023):
Read-outs that look alike come from different tables or passages of the source.

Key:
[1] = tested on: FADD−/− Jurkat cells; assay: Inhibition of TNF-induced programmed necrosis of FADD deficient Jurkat cells (Cell Titer-Glo viability); assay type: cell-based; conditions: for EC50: FADD−/− Jurkat cells; for activity of inhibition of programmed necrosis compared with GSK2982772: human FADD-deficient Jurkat cells, TNFα alone or in combination with SM164
Text: (§1) The adopted biological assay protocol was: the effect of compounds on programmed necroptosis of TNF-induced FADD (Fas-Associated Death Domain) deficient Jurkat cells and L929 cells.
(§2) In order to verify the inhibitory effect of the compounds of the present invention on programmed cell necrosis at the cellular level, cell types that is closely related to the RIP1 pathway, namely FADD deficient Jurkat cells (human peripheral blood leukemia T cell strain) and L929 cells, were selected. Two different stimulation methods were used: tumor necrosis factor (TNFα) was used alone, or TNFα was used in combination with mitochondria-derived cysteine aspartate activator (SMAC) SM164. Cells viability was calculated by detecting chemiluminescence values, thereby obtaining the biological activity of the compound on the inhibition of programmed cell necrosis.
(§3) Methods: FADD deficient Jurkat cells: FADD deficient Jurkat cells (human peripheral blood leukemia T cell line) were cultured in vitro. After growing to the logarithmic growth phase, the cells were collected, centrifuged at 1000 rpm for 5 min, the supernatant was discarded, and the cell concentration was adjusted to 2.5×10^5/mL. Cells were seeded into 384-well plates, 40 μl per well. 5 μL of SM164 (50 nM) diluted in cell culture medium and 5 μL of each compound were added to the corresponding wells. After pretreatment at 37° C. for 1 h, 5 μL of TNFα (50 ng/mL) diluted in cell culture medium was added to each well of the stimulation group, and 5 μL of the culture medium was added to the control group. The plate was cultured in a cell incubator (37° C., 5% CO2) for 14 h, and […] of Cell Titer-Glo solution was added to each well, then incubated for 30 min at room temperature, and intracellular ATP level was measured by detecting luminescence. The unstimulated DMSO control wells were taken as 100% cell viability. L929 cells: The L929 cells (mouse fibroblasts) were cultured in vitro, digested and diluted to 6.25×10^4/ml, and the cells were seeded into 384-well plates, 40 μl per well. The plate was placed in a cell incubator (37° C., 5% CO2) for 12 hours. 5 μL of SM164 (500 nM) diluted in cell culture medium and 5 μL of each compound were added to the corresponding wells. After pretreatment at 37° C. for 1 h, 5 μL of TNFα (500 ng/mL) diluted in cell culture medium was added to each well of the stimulation group, and 5 μL of the culture medium was added to the control group. After the plate was cultured for 14 h in a cell incubator (37° C., 5% CO2), 15 μl of Cell Titer-Glo solution was added to each well. The plate was incubated at room temperature for 30 min, and intracellular ATP level was measured by detecting luminescence. The unstimulated DMSO control wells were taken as 100% cell viability. EC50 values of the compounds were calculated using Prism Graphpad statistical software.

[2] = tested on: L929 cells; assay: Inhibition of TNF-induced programmed necrosis of L929 cells (Cell Titer-Glo viability); assay type: cell-based, mouse; conditions: Mus musculus, L929, L929 cells
Text: as §1, §2, §3

[3] = Homo sapiens, Jurkat, 14 h, stimulated with TNFα + SM164, read-out: EC50 (μM) FADD−/− Jurkat cells (human) TNFα + SM164
[4] = Homo sapiens, Jurkat, stimulated with TNFα alone, read-out: EC50 (μM) FADD−/− Jurkat cells (human) TNFα
[5] = stimulated with TNFα + SM164, read-out: EC50 (μM) L929 cells (mouse) TNFα + SM164
[6] = stimulated with TNFα alone, read-out: EC50 (μM) L929 cells (mouse) TNFα

| Compound | EC50 [1, 3] [nM] | EC50 [1, 4] [nM] | EC50 [2, 5] [nM] | EC50 [2, 6] [nM] | EC50 ([1]; stimulated with TNFα + SM164, read-out: EC50 (μM) FADD−/− Jurkat cells (human) TNFα + SM164) [nM] | EC50 ([1]; stimulated with TNFα alone, read-out: EC50 (μM) FADD−/− Jurkat cells (human) TNFα) [nM] | activity of inhibition of programmed necrosis compared with GSK2982772 [1] |
| --- | --- | --- | --- | --- | --- | --- | --- |
| CCn1ncc(C(=O)NCc2ccc(-n3cnc4c(N)ncnc43)cc2)c1Cc1ccccc1 [QY-10-65] | 34.6 | 1.2 | 73.8 | 22.1 |  |  |  |
| CNC(=O)c1ccc2c(c1)ncn2-c1ccc(CNC(=O)c2cnn(C)c2Cc2ccccc2)cc1 [QY-10-73] | 5.2 | 0.0697 | 76.7 | 20 |  |  |  |
| Cn1ncc(C(=O)NCc2ccc(-n3cnc4ccc(C(=O)NCCN5CCOCC5)cc43)cc2)c1Cc1ccccc1 [QY-11-68A] | 3.79 | 0.581 | 1.58 | 161 |  |  |  |
| CN1CCN(CCNC(=O)c2ccc3ncn(-c4ccc(CNC(=O)c5cnn(C)c5Cc5ccccc5)cc4)c3c2)CC1 [QY-11-69A] | 194 | 3 | > 10000 | > 10000 |  |  |  |
| CN(C)CCNC(=O)c1ccc2ncn(-c3ccc(CNC(=O)c4cnn(C)c4Cc4ccccc4)cc3)c2c1 [QY-11-74A] | 368 | 53 | > 10000 | > 10000 |  |  |  |
| CN(C)CCNC(=O)c1ccc2c(c1)ncn2-c1ccc(CNC(=O)c2cnn(C)c2Cc2ccccc2)cc1 [QY-11-74B] | 3.73 | 0.293 | 0.687 | 0.386 |  |  |  |
| COc1cc2ncnc(-c3ccc(CNC(=O)c4cnn(C)c4Cc4ccccc4)cc3)c2cc1OC [QY-11-75] | 1500 | 233 | > 10000 | > 10000 |  |  |  |
| Cn1ncc(C(=O)NCc2ccc(-c3ccnc4[nH]ccc34)cc2)c1Cc1ccccc1 [QY-11-79] | 747 | 152 | > 10000 | > 10000 |  |  |  |
| Cn1ncc(C(=O)NCc2ccc(-c3ncnc4[nH]ccc34)cc2)c1Cc1ccccc1 [QY-11-80] | 482 | 35 | 3460 | 1970 |  |  |  |
| COc1ccc2c(c1)ncn2-c1ccc(CNC(=O)c2cnn(C)c2Cc2ccccc2)cc1 [QY-11-102A] |  |  | 0.0793 | 0.00513 | 0.0649 | 0.00168 |  |
| COc1ccc2ncn(-c3ccc(CNC(=O)c4cnn(C)c4Cc4ccccc4)cc3)c2c1 [QY-11-102B] | 0.306 | 0.0133 | 0.424 | 0.0278 |  |  |  |
| CC(NC(=O)c1cnn(C)c1Cc1ccccc1)c1ccc(-n2cnc3c(N)ncnc32)cc1 (stereo not shown) [QY-12-31] | 0.254 | 0.0967 | 0.569 | 0.356 |  |  |  |
| CNC(=O)c1ccc2c(c1)ncn2-c1ccc(CNC(=O)c2ccc(F)n2Cc2ccccc2)cc1 [QY-12-47] | 17.4 | 1.74 | 34.4 | 6 |  |  |  |
| N#Cc1ccc(C(=O)NCc2ccc(-n3cnc4c(N)ncnc43)cc2)n1Cc1ccccc1 [QY-12-51] | 1860 | 214 | 3770 | 875 |  |  |  |
| CC(c1ccc(-n2cnc3c(N)ncnc32)cc1)N1CCc2nn(C)c(Cc3ccccc3)c2C1=O (stereo not shown) [QY-12-90] | 0.813 | 0.13 | 42.7 | 2.41 |  |  |  |
| C[C@@H](NC(=O)c1cnn(C)c1Cc1ccccc1)c1ccc(-n2cnc3c(N)ncnc32)cc1 [QY-12-97] | 132 | 36.1 | 219 | 51.9 |  |  |  |
| Cn1nc(Cl)c(C(=O)NCc2ccc(-n3cnc4c(N)ncnc43)cc2)c1Cc1ccccc1 [QY-12-100] | 0.734 | 0.172 | 4.63 | 0.458 |  |  | stronger activity |
| Cn1ncc(C(=O)NC(C)(C)c2ccc(-n3cnc4c(N)ncnc43)cc2)c1Cc1ccccc1 [QY-12-102] | 28.5 | 7.52 | 6960 | 550 |  |  |  |
| C[C@H](NC(=O)c1c(Cl)nn(C)c1Cc1ccccc1)c1ccc(-n2cnc3c(N)ncnc32)cc1 [QY-13-29] | 0.318 | 0.0916 | 0.462 | 0.317 |  |  |  |
| C[C@H](NC(=O)c1cnn(C)c1Cc1ccccc1)c1ccc(-n2cnc3c(N)ncnc32)cc1 [QY-13-31] | 0.305 | 0.084 | 0.553 | 0.437 |  |  | stronger activity |
| C[C@@H](c1ccc(-n2cnc3c(N)ncnc32)cc1)N1CCc2nn(C)c(Cc3ccccc3)c2C1=O [QY-13-33] | 2.85 | 0.296 | 3.02 | 1.32 |  |  | stronger activity |
| Cn1nnc(C(=O)NCc2ccc(-n3cnc4cc(C#N)ccc43)cc2)c1Cc1ccccc1 [QY-15-59] |  | 0.00767 | 0.001 | 0.001 |  |  | stronger activity |
| CNC(=O)c1ccc2c(ccn2-c2ccc(CNC(=O)c3ncc(Cc4ccccc4)o3)cc2)c1 [XHJ-2-88] | 380 | 70.1 | 3980 | 831 |  |  |  |
| CCCn1nc(C(=O)NCc2ccc(-n3cnc4cc(C(=O)NC)ccc43)cc2)cc1Cc1ccccc1 [XHJ-4-48] | 738 | 109 | > 10000 | 3010 |  |  |  |
| CNC(=O)c1ccc2c(c1)ncn2-c1ccc(CNC(=O)c2cn(Cc3ccccc3)nn2)cc1 [ZSQ-13-35] | 1590 | 233 | > 10000 | > 10000 |  |  |  |
| CNC(=O)c1ccc2c(c1)ncn2-c1ccc(CNC(=O)c2n[nH]c(Cc3ccccc3)n2)cc1 [ZSQ-13-46] | > 10000 | > 10000 | > 10000 | > 10000 |  |  |  |
| Cn1nc(C(=O)NCc2ccc(-n3ncc4c(N)ncnc43)cc2)cc1Cc1ccccc1 [ZSQ-15-48] | 451 | 70.9 | > 10000 | 6550 |  |  |  |
| CNC(=O)c1ccc2c(ccn2-c2ccc(CNC(=O)c3cc(Cc4ccccc4)n(C)n3)cc2)c1 [ZSQ-15-68] | 670 | 115 | 1800 | 610 |  |  |  |
